EC50 data for 27 compounds are collected here from patent US8431565B2 (priority 2007, dated 2013).

A word on the EC50: it is the concentration that produces a half-maximal response. Low values mean a more potent agent, high ones a less potent agent.

For the experiment, the target named is human CB1 receptor (hCB1) (Homo sapiens, UniProt P21554). It is filed as cell-based.
Chain of human CB1 receptor (hCB1) (P21554 whole entry): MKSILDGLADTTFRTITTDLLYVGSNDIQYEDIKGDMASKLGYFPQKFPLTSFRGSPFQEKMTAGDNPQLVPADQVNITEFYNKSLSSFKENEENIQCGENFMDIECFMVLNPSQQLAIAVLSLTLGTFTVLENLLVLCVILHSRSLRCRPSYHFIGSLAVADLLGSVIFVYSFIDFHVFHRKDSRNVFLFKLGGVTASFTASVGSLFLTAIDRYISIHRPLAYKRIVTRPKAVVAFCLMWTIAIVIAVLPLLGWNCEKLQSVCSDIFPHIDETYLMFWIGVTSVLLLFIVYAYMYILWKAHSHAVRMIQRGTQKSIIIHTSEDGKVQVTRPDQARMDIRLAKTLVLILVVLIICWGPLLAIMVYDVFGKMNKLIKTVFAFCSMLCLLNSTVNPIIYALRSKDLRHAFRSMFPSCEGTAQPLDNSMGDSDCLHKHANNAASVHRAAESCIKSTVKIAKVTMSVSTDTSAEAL
Compound `CC1CCN(CC(C)(C)NC(=O)c2nc(-c3cc(Cl)c(F)cc3F)n3c2CN(C)CCC3)CC1` [Compound 880, 3-(5-chloro-2,4-difluorophenyl)-8-methyl-N-(2-methyl-1-(4-methylpiperidin-1-yl)propan-2-yl)-6,7,8,9-tetrahydro-5H-imidazo[1,5-a][1,4]diazepine-1-carboxamide] had a concentration giving a half-maximal response (EC50) above 10 µM.

`CN1CCCn2c(-c3cc(F)c(F)cc3F)nc(C(=O)NCC3CCOCC3)c2C1` [Compound 764, 8-methyl-N-((tetrahydro-2H-pyran-4-yl)methyl)-3-(2,4,5-trifluorophenyl)-6,7,8,9-tetrahydro-5H-imidazo[1,5-a][1,4]diazepine-1-carboxamide] came in with an EC50 above 10 µM.

With `CNC(=O)[C@@H](NC(=O)c1nc(-c2cnn(-c3ccccc3)c2C)n2c1CN(C)CCC2)C(C)(C)C` [Compound 709, (S)-N-(3,3-dimethyl-1-(methylamino)-1-oxobutan-2-yl)-8-methyl-3-(5-methyl-1-phenyl-1H-pyrazol-4-yl)-6,7,8,9-tetrahydro-5H-imidazo[1,5-a][1,4]diazepine-1-carboxamide], the concentration giving a half-maximal response (EC50) was above 10 µM.

Regarding `CN1CCCn2c(-c3cc(Cl)c(F)cc3F)nc(C(=O)N3CCC(F)(F)C3)c2C1` [Compound 824, (3-(5-chloro-2,4-difluorophenyl)-8-methyl-6,7,8,9-tetrahydro-5H-imidazo[1,5-a][1,4]diazepin-1-yl)(3,3-difluoropyrrolidin-1-yl)methanone], the EC50 was above 10 µM.

As to `CNC(=O)[C@@H](NC(=O)c1nc(-c2ccc(C(F)(F)F)cc2C(F)(F)F)n2c1CN(C)CCC2)C(C)(C)C` [Compound 617, (S)-3-(2,4-bis(trifluoromethyl)phenyl)-N-(3,3-dimethyl-1-(methylamino)-1-oxobutan-2-yl)-8-methyl-6,7,8,9-tetrahydro-5H-imidazo[1,5-a][1,4]diazepine-1-carboxamide], the EC50 is above 10 µM.

As to `COC(=O)C1CN(C(=O)c2nc(-c3cc(Cl)c(F)cc3F)n3c2CN(C)CCC3)CCC1=O` (stereo not drawn) [Compound 826, methyl 1-(3-(5-chloro-2,4-difluorophenyl)-8-methyl-6,7,8,9-tetrabydro-5H-imidazo[1,5-a][1,4]diazepine-1-carbonyl)-4-oxopiperidine-3-carboxylate], the concentration for a half-maximal effect (EC50) was above 10 µM.

With `CN1CCCn2c(-c3cc(Cl)c(F)cc3F)nc(C(=O)N3CC[C@H](O)C3)c2C1` [Compound 910, (S)-(3-(5-chloro-2,4-difluorophenyl)-8-methyl-6,7,8,9-tetrahydro-5H-imidazo[1,5-a][1,4]diazepin-1-yl)(3-hydroxypyrrolidin-1-yl)methanone], the EC50 was above 10 µM.

The compound `CC(C)(C)[C@H](NC(=O)c1nc(-c2ccccc2)n2c1CNCC2)C(=O)NCCF` [Compound 731, (S)-N-(1-(2-fluoroethylamino)-3,3-dimethyl-1-oxobutan-2-yl)-3-phenyl-5,6,7,8-tetrahydroimidazo[1,5-a]pyrazine-1-carboxamide] yielded a concentration giving a half-maximal response (EC50) above 10 µM.

As to `CNC(=O)[C@@H](NC(=O)c1nc(-c2cc(F)c(F)cc2F)n2c1CN(C(C)=O)CCC2)C(C)(C)C` [Compound 818, (S)-8-acetyl-N-(3,3-dimethyl-1-(methylamino)-1-oxobutan-2-yl)-3-(2,4,5-trifluorophenyl)-6,7,8,9-tetrahydro-5H-imidazo[1,4]diazepine-1-carboxamide], the concentration giving a half-maximal response (EC50) is above 10 µM.

On to `CN1CCCn2c(-c3cc(F)c(F)cc3F)nc(C(=O)N3CCCCC3CN3CCOCC3)c2C1` (stereo not drawn) [Compound 789, (8-methyl-3-(2,4,5-trifluorophenyl)-6,7,8,9-tetrahydro-5H-imidazo[1,5-a][1,4]diazepin-1-yl)(2-(morpholinomethyl)piperidin-1-yl)methanone], for which the EC50 was above 10 µM.

Take `CN1CCCn2c(-c3cc(Cl)c(F)cc3F)nc(C(=O)N3CC(F)(F)C3)c2C1` [Compound 823, (3-(5-chloro-2,4-difluorophenyl)-8-methyl-6,7,8,9-tetrahydro-5H-imidazo[1,5-a][1,4]diazepin-1-yl)(3,3-difluoroazetidin-1-yl)methanone]: the concentration for a half-maximal effect (EC50) was above 10 µM.

The compound `CNC(=O)[C@@H](NC(=O)c1nc(-c2ccc(=O)n(C)c2)n2c1CN(C)CCC2)C(C)(C)C` [Compound 708, (S)-N-(3,3-dimethyl-1-(methylamino)-1-oxobutan-2-yl)-8-methyl-3-(1-methyl-6-oxo-1,6-dihydropyridin-3-yl)-6,7,8,9-tetrahydro-5H-imidazo[1,5-a][1,4]diazepine-1-carboxamide] gave an EC50 above 10 µM.

In turn, `CN1CCCn2c(-c3cc(F)c(F)cc3F)nc(C(=O)N3CC(O)C3)c2C1` [Compound 856, (3-hydroxyazetidin-1-yl)(8-methyl-3-(2,4,5-trifluorophenyl)-6,7,8,9-tetrahydro-5H-imidazo[1,5-a][1,4]diazepin-1-yl)methanone] yielded a concentration for a half-maximal effect (EC50) above 10 µM.

In the case of `CN1CCCn2c(-c3cc(Cl)c(F)cc3F)nc(C(=O)NC3(C(=O)N4CC(F)(F)C4)CC3)c2C1` [Compound 873, 3-(5-chloro-2,4-difluorophenyl)-N-(1-(3,3-difluoroazetidine-1-carbonyl)cyclopropyl)-8-methyl-6,7,8,9-tetrahydro-5H-imidazo[1,5-a][1,4]diazepine-1-carboxamide], the concentration for a half-maximal effect (EC50) is above 10 µM.

Turning to `CN1CCCn2c(-c3cc(Cl)ccc3F)nc(C(=O)N[C@H](C(=O)N[C@H]3CCC[C@H]3O)C(C)(C)C)c2C1` [Compound 840, 3-(5-chloro-2-fluorophenyl)-N-((S)-1-((1S,2R)-2-hydroxycyclopentylamino)-3,3-dimethyl-1-oxobutan-2-yl)-8-methyl-6,7,8,9-tetrahydro-5H-imidazo[1,5-a][1,4]diazepine-1-carboxamide], the 50% effective concentration (EC50) is above 10 µM.

Take `CN1CCCn2c(-c3cc(F)c(F)cc3F)nc(C(=O)N3CCC4(CCN(C)C4=O)CC3)c2C1` [Compound 788, 2-methyl-8-(8-methyl-3-(2,4,5-trifluorophenyl)-6,7,8,9-tetrahydro-5H-imidazo[1,5-a][1,4]diazepine-1-carbonyl)-2,8-diazaspiro[4.5]decan-1-one]: the EC50 was above 10 µM.

For the compound `CNC(=O)[C@@H](NC(=O)c1nc(-c2cnn(CC(C)C)c2)n2c1CN(C)CCC2)C(C)(C)C` [Compound 710, (S)-N-(3,3-dimethyl-1-(methylamino)-1-oxobutan-2-yl)-3-(1-isobutyl-1H-pyrazol-4-yl)-8-methyl-6,7,8,9-tetrahydro-5H-imidazo[1,5-a][1,4]diazepine-1-carboxamide], the half-maximal effective concentration (EC50) is above 10 µM.

Compound `CNC(=O)[C@@H](NC(=O)c1nc(C2CCN(S(=O)(=O)C(C)C)CC2)n2c1CN(C)CCC2)C(C)(C)C` [Compound 775, (S)-N-(3,3-dimethyl-1-(methylamino)-1-oxobutan-2-yl)-3-(1-(isopropylsulfonyl)piperidin-4-yl)-8-methyl-6,7,8,9-tetrahydro-5H-imidazo[1,5-a][1,4]diazepine-1-carboxamide] had an EC50 above 10 µM.

The compound `CNC(=O)[C@@H](NC(=O)c1nc(-c2ccccc2N)n2c1CN(C)CCC2)C(C)(C)C` [Compound 646, (S)-3-(2-aminophenyl)-N-(3,3-dimethyl-1-(methylamino)-1-oxobutan-2-yl)-8-methyl-6,7,8,9-tetrahydro-5H-imidazo[1,5-a][1,4]diazepine-1-carboxamide] came in with an EC50 above 10 µM.

Turning to `CNC(=O)[C@@H](NC(=O)c1nc(-c2cc(F)c(F)cc2OC(C)C)n2c1CN(C)CCC2)C(C)(C)C` [Compound 651, (S)-3-(4,5-difluoro-2-isopropoxyphenyl)-N-(3,3-dimethyl-1-(methylamino)-1-oxobutan-2-yl)-8-methyl-6,7,8,9-tetrahydro-5H-imidazo[1,5-a][1,4]diazepine-1-carboxamide], the EC50 was above 10 µM.

In turn, `CNC(=O)[C@H]1CCN(C(=O)c2nc(-c3cc(Cl)c(F)cc3F)n3c2CN(C)CCC3)C1` [Compound 809, (S)-1-(3-(5-chloro-2,4-difluorophenyl)-8-methyl-6,7,8,9-tetrahydro-5H-imidazo[1,5-a][1,4]diazepine-1-carbonyl)-N-methylpyrrolidine-3-carboxamide] returned a concentration giving a half-maximal response (EC50) above 10 µM.

For the compound `CNC(=O)[C@@H](NC(=O)c1nc(-c2ccc(=O)[nH]c2)n2c1CN(C)CCC2)C(C)(C)C` [Compound 645, (S)-N-(3,3-dimethyl-1-(methylamino)-1-oxobutan-2-yl)-8-methyl-3-(6-oxo-1,6-dihydropyridin-3-yl)-6,7,8,9-tetrahydro-5H-imidazo[1,5-a][1,4]diazepine-1-carboxamide], the half-maximal effective concentration (EC50) is above 10 µM.

Regarding `CNC(=O)[C@@H](NC(=O)c1nc(-c2cccc3c2OC(F)(F)O3)n2c1CN(C)CCC2)C(C)(C)C` [Compound 682, (S)-3-(2,2-difluorobenzo[d][1,3]dioxol-4-yl)-N-(3,3-dimethyl-1-(methylamino)-1-oxobutan-2-yl)-8-methyl-6,7,8,9-tetrahydro-5H-imidazo[1,5-a][1,4]diazepine-1-carboxamide], the EC50 was above 10 µM.

`CNC(=O)[C@@H](NC(=O)c1nc(-c2ccnc(C)c2)n2c1CN(C)CCC2)C(C)(C)C` [Compound 638, (S)-N-(3,3-dimethyl-1-(methylamino)-1-oxobutan-2-yl)-8-methyl-3-(2-methylpyridin-4-yl)-6,7,8,9-tetrahydro-5H-imidazo[1,5-a][1,4]diazepine-1-carboxamide] gave an EC50 above 10 µM.

Compound `CNC(=O)C1(NC(=O)c2nc(-c3cc(Cl)c(F)cc3F)n3c2CN(C)CCC3)CC1` [Compound 905, 3-(5-chloro-2,4-difluorophenyl)-8-methyl-N-(1-(methylcarbamoyl)cyclopropyl)-6,7,8,9-tetrahydro-5H-imidazo[1,5-a][1,4]diazepine-1-carboxamide] had a 50% effective concentration (EC50) above 10 µM.

As to `CNC(=O)[C@H](CC(C)(C)C)NC(=O)c1nc(-c2ccc(F)c(Cl)c2)n2c1CN(C)CCC2` [Compound 546, (S)-3-(3-chloro-4-fluorophenyl)-N-(4,4-dimethyl-1-(methylamino)-1-oxopentan-2-yl)-8-methyl-6,7,8,9-tetrahydro-5-imidazo[1,5-a][1,4]diazepine-1-carboxamide], the 50% effective concentration (EC50) is above 10 µM.

On to `CNC(=O)[C@@H](NC(=O)c1nc(-c2ccnc(-c3ccnc(Cl)c3)c2)n2c1CN(C)CCC2)C(C)(C)C` [Compound 625, (S)-3-(2′-chloro-2,4′-bipyridin-4-yl)-N-(3,3-dimethyl-1-(methylamino)-1-oxobutan-2-yl)-8-methyl-6,7,8,9-tetrahydro-5H-imidazo[1,5-a][1,4]diazepine-1-carboxamide], for which the EC50 is above 10 µM.
